Where two headings read alike, the source gives them in different places.
Key:
[1] = tested on: calf thymus (CT) DNA; experiment: Thermal denaturation studies; format: binding; conditions: [PBD]:[DNA] molar ratio 1:5; CT-DNA 100 μM, ligand 20 μM; sodium phosphate buffer pH 7.00
Protocol: The DNA binding affinity of the C2-Fluoro substituted piperazine linked pyrrolo[2,1c][1,4]benzodiazepine dimers were subjected to thermal denaturation studies using calf thymus (CT) DNA (Jones, G. B.; Davey, C. L.; Jenkins, T. C.; Kamal, A.; Kneale, G. G.; Neidle, S.; Webster, G. D.; Thurston, D. E. Anti-cancer Drug Des. 1990, 5, 249. McConnaughie, A. W.; Jenkins, T. C. J. Med. Chem. 1995, 38, 3488). The studies for these compounds (IXa-f) were carried out by DNA/ligand molar ratio is 1:5 the increase in the helix melting temperature (ΔTm) for each compound was examined at 0 h. […] Data for DSB-120 and SJG-136 are included in Table-3 for comparison. The synthetic DC-81 dimer (DSB-120) gives a ΔTm 10.2° C. and SJC-136 gives a […]Tm of 25° C. under identical experimental condition.

[2] = tested on: calf thymus (CT) DNA; conditions: [PBD]:[DNA] molar ratio 1:5; literature value; listed as SJC-136; cited from earlier work

SMILES | ΔTm after incubation at 37° C. for 0 h [1] | ΔTm after incubation at 37° C. for 0 h [2]
COc1cc2c(cc1OCCCCCN1CCN(CCCCCOc3cc4c(cc3OC)C(=O)N3CC(F)(F)C[C@H]3C=N4)CC1)N=C[C@@H]1CC(F)(F)CN1C2=O [IXf, 1,1′-{[(bispentane-1,N-diyl)piperazine]dioxy}bis[(11aS)-2-2-difluoro-7-methoxy-1,2,3,11a-tetrahydro-5H-pyrrolo[2,1-c][1,4]benzodiazepine-5-one]] | 13.0 °C | –
C=C1C[C@H]2C=Nc3cc(OCCCOc4cc5c(cc4OC)C(=O)N4CC(=C)C[C@H]4C=N5)c(OC)cc3C(=O)N2C1 [SJG-136] | – | 25 °C
